Test results from ChEMBL document CHEMBL4507261, “Data for DCP probe A-192621” (2021).

Experiments:
[1] = biological target: MAO-A (amine oxidase [flavin-containing] A) (Rattus norvegicus, UniProt P21396); assay: MAO-A Eurofins-Cerep binding assay; parameters: incubation time 60 min, incubation temperature 37°C, ligand concentration 10 nM; details: rat cerebral cortex (source of protein), probe [3H]Ro 41-1049 (10 nM), compound concentration 10 uM, read-out: % Inhibition of Control Specific Binding (Mean n=2)
Sequence of MAO-A (amine oxidase [flavin-containing] A) (P21396 whole entry): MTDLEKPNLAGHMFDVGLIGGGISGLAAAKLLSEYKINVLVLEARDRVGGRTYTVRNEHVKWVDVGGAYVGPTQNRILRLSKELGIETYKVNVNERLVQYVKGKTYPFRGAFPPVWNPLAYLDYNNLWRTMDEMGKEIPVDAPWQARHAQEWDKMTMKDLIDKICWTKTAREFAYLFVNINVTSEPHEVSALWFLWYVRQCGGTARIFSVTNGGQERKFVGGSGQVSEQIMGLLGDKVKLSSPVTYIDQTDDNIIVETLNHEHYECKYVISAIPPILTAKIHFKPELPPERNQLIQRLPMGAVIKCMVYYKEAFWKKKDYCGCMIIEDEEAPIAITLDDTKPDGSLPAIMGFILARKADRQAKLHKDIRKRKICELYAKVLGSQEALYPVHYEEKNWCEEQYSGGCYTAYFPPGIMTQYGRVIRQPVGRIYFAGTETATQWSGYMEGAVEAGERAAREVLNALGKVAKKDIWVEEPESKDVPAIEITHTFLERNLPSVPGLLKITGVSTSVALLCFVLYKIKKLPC

[2] = biological target: T1, Muscarinic acetylcholine receptor M5 (Homo sapiens) (UniProt P08912); assay: M5 (h) Eurofins-Cerep binding assay; parameters: ligand concentration 0.3 nM; details: filed as antagonist, Compound concentration 10.0 uM
T1 sequence (whole entry): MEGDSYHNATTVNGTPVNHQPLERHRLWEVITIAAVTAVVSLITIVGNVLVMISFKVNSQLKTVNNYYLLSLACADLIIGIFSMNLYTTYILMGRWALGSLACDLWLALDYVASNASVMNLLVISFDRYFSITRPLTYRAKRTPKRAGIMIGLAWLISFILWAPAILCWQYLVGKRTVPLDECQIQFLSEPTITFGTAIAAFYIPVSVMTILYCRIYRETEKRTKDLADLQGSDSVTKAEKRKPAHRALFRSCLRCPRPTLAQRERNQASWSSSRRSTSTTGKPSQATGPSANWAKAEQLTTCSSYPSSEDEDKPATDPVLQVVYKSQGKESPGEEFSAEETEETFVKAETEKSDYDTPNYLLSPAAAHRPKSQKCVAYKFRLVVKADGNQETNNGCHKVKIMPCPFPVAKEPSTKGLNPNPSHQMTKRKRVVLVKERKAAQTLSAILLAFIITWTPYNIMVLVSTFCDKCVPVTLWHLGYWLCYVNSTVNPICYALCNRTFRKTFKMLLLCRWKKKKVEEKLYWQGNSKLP

[3] = biological target: Substance-P receptor (Homo sapiens) (UniProt P25103); assay: NK1 (h) Eurofins-Cerep binding assay; parameters: ligand concentration 0.05 nM; details: filed as agonist, Compound concentration 10.0 uM
[4] = biological target: Sodium-dependent noradrenaline transporter (Homo sapiens) (UniProt P23975); assay: norepinephrine transporter (h) Eurofins-Cerep binding assay; details: filed as antagonist, Compound concentration 10.0 uM
[5] = tested on: Tyrosine-protein kinase ABL1 (Homo sapiens), P00519 [Q252H]; details: Compound concentration 1000.0 nM
[6] = tested on: Tyrosine-protein kinase ABL1 (Homo sapiens), P00519 [T315I]; details: Compound concentration 1000.0 nM
[7] = biological target: Mitogen-activated protein kinase kinase kinase 5 (Homo sapiens) (UniProt Q99683); details: Compound concentration 1000.0 nM
[8] = biological target: Tyrosine-protein kinase CSK (Homo sapiens) (UniProt P41240); details: Compound concentration 1000.0 nM
[9] = biological target: Death-associated protein kinase 1 (Homo sapiens) (UniProt P53355); details: Compound concentration 1000.0 nM
[10] = biological target: Myotonin-protein kinase (Homo sapiens) (UniProt Q09013); details: Compound concentration 1000.0 nM
Sequence of Myotonin-protein kinase (Homo sapiens) (Q09013 whole entry): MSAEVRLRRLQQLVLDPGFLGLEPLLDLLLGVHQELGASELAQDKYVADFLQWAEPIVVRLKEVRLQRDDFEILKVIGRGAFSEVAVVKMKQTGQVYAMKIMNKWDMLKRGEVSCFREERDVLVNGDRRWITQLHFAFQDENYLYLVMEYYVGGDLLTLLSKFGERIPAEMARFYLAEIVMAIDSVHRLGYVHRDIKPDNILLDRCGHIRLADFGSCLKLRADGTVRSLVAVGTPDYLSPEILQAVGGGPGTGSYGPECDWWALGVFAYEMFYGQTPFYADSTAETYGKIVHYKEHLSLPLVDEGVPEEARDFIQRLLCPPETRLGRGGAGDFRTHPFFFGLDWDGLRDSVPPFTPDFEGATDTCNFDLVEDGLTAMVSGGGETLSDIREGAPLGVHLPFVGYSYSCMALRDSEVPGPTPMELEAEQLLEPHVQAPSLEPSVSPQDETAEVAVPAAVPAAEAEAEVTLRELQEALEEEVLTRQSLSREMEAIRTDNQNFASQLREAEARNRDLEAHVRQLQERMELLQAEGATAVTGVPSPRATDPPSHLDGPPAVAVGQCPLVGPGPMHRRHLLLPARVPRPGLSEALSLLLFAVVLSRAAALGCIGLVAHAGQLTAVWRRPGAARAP

[11] = biological target: Dual specificity tyrosine-phosphorylation-regulated kinase 1B (Homo sapiens) (UniProt Q9Y463); details: Compound concentration 1000.0 nM
Sequence of Dual specificity tyrosine-phosphorylation-regulated kinase 1B (Homo sapiens) (Q9Y463 whole entry, looked up): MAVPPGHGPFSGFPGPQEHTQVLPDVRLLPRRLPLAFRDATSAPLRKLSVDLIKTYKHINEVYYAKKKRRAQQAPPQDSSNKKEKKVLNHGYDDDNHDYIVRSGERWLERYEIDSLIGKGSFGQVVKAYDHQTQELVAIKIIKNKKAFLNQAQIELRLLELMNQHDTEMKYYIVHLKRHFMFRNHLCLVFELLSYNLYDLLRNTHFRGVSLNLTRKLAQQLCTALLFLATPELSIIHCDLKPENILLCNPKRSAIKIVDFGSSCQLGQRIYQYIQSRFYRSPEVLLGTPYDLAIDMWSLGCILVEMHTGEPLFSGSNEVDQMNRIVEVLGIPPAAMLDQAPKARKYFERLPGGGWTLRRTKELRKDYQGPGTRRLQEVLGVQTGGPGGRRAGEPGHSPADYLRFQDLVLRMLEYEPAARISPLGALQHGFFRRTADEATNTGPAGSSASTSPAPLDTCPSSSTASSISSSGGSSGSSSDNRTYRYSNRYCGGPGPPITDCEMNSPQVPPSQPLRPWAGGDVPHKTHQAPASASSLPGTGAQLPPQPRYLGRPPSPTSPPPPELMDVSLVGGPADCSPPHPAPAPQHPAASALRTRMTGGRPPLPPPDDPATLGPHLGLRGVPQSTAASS

[12] = biological target: Eukaryotic translation initiation factor 2-alpha kinase 1 (Homo sapiens) (UniProt Q9BQI3); details: Compound concentration 1000.0 nM
[13] = biological target: Ephrin type-A receptor 5 (Homo sapiens) (UniProt P54756); details: Compound concentration 1000.0 nM
[14] = biological target: Ephrin type-B receptor 6 (Homo sapiens) (UniProt O15197); details: Compound concentration 1000.0 nM
[15] = biological target: Mitogen-activated protein kinase 6 (Homo sapiens) (UniProt Q16659); details: Compound concentration 1000.0 nM
[16] = biological target: Mitogen-activated protein kinase 7 (Homo sapiens) (UniProt Q13164); details: Compound concentration 1000.0 nM
[17] = biological target: Inhibitor of nuclear factor kappa-B kinase subunit alpha (Homo sapiens) (UniProt O15111); details: Compound concentration 1000.0 nM
[18] = biological target: Tyrosine-protein kinase Lck (Homo sapiens) (UniProt P06239); details: Compound concentration 1000.0 nM
Sequence of Tyrosine-protein kinase Lck (Homo sapiens) (P06239 2-509 limits assumed): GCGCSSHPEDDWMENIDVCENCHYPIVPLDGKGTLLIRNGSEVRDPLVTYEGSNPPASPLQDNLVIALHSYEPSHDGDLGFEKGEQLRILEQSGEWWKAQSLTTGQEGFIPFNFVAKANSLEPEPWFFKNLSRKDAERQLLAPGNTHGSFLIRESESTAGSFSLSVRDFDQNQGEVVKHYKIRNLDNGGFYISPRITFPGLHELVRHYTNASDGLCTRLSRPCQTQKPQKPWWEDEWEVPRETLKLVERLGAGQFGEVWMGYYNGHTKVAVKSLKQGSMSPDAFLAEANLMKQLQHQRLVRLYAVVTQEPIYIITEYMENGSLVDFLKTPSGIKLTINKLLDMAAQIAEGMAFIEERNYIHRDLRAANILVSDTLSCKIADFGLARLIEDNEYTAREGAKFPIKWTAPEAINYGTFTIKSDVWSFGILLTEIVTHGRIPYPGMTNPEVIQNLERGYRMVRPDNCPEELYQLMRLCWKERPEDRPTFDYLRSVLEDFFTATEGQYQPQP

[19] = biological target: Serine/threonine-protein kinase 10 (Homo sapiens) (UniProt O94804); details: Compound concentration 1000.0 nM
[20] = biological target: Mitogen-activated protein kinase kinase kinase kinase 4 (Homo sapiens) (UniProt O95819); details: Compound concentration 1000.0 nM
[21] = biological target: Myosin light chain kinase (Homo sapiens) (UniProt Q32MK0); details: Compound concentration 1000.0 nM
[22] = biological target: Platelet-derived growth factor receptor alpha (Homo sapiens) (UniProt P16234); details: Compound concentration 1000.0 nM
[23] = biological target: Phosphatidylinositol 4-phosphate 3-kinase C2 domain-containing subunit beta (Homo sapiens) (UniProt O00750); details: Compound concentration 1000.0 nM
[24] = biological target: Phosphatidylinositol 4,5-bisphosphate 3-kinase catalytic subunit gamma isoform (Homo sapiens) (UniProt P48736); details: Compound concentration 1000.0 nM
Sequence of Phosphatidylinositol 4,5-bisphosphate 3-kinase catalytic subunit gamma isoform (Homo sapiens) (P48736 whole entry, looked up, canonical isoform): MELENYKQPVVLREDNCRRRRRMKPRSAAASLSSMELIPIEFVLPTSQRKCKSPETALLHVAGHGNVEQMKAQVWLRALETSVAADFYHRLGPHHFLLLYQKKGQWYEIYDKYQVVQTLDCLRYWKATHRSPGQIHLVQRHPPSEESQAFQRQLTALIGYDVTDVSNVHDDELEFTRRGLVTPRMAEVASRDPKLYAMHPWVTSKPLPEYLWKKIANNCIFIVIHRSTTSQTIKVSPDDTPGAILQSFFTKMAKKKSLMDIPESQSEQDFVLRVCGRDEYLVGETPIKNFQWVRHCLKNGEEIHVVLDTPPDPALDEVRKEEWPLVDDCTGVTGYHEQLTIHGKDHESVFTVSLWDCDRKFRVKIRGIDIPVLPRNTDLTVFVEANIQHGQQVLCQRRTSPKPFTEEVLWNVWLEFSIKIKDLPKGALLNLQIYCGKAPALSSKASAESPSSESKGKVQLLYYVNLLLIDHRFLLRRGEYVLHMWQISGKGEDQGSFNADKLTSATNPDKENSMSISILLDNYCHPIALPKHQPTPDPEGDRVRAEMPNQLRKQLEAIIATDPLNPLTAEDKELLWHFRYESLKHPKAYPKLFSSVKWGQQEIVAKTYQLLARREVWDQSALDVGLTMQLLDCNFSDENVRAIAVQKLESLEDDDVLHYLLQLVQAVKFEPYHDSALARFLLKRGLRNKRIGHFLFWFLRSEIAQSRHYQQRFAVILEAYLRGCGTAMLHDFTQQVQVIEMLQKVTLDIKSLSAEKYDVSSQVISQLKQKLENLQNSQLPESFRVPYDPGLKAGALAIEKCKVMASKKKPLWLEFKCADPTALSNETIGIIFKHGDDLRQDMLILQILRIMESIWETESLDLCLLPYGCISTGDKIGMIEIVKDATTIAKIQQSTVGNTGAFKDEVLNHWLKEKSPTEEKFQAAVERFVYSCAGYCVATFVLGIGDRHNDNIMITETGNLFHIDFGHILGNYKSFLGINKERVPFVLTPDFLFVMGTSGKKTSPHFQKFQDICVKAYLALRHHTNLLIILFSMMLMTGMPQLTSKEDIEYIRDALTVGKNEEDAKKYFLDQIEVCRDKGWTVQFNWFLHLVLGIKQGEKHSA

[25] = biological target: Serine/threonine-protein kinase pim-3 (Homo sapiens) (UniProt Q86V86); details: Compound concentration 1000.0 nM
[26] = biological target: Phosphatidylinositol 4-phosphate 5-kinase type-1 alpha (Homo sapiens) (UniProt Q99755); details: Compound concentration 1000.0 nM
[27] = biological target: Phosphatidylinositol 4-phosphate 5-kinase type-1 gamma (Homo sapiens) (UniProt O60331); details: Compound concentration 1000.0 nM
[28] = biological target: Protein kinase C epsilon type (Homo sapiens) (UniProt Q02156); details: Compound concentration 1000.0 nM
Sequence of Protein kinase C epsilon type (Homo sapiens) (Q02156 whole entry): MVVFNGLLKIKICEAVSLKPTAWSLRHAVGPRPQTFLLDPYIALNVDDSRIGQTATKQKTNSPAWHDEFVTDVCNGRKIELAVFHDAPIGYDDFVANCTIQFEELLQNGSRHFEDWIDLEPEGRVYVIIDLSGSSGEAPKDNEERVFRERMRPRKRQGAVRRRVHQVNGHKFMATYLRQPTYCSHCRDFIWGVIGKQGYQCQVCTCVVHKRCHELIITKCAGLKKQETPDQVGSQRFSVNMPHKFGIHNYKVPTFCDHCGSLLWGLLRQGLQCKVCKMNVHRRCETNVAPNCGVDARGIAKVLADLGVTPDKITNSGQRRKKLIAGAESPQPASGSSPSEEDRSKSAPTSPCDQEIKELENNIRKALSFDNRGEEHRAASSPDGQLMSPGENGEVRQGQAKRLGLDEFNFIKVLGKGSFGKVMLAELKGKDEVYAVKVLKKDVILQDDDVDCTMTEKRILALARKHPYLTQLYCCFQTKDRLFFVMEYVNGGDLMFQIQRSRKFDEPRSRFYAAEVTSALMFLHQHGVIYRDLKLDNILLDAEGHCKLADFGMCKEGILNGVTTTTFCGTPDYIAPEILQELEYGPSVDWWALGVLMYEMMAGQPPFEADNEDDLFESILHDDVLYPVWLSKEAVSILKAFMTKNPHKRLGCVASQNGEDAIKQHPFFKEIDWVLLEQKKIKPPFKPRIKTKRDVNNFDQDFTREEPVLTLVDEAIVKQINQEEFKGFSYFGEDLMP

[29] = biological target: Ribosomal protein S6 kinase alpha-5 (Homo sapiens) (UniProt O75582); details: Compound concentration 1000.0 nM
[30] = biological target: Uncharacterized serine/threonine-protein kinase SBK3 (Homo sapiens) (UniProt P0C264); details: Compound concentration 1000.0 nM
[31] = biological target: Serine/threonine-protein kinase Sgk2 (Homo sapiens) (UniProt Q9HBY8); details: Compound concentration 1000.0 nM
[32] = biological target: SRSF protein kinase 1 (Homo sapiens) (UniProt Q96SB4); details: Compound concentration 1000.0 nM
[33] = biological target: Serine/threonine-protein kinase TBK1 (Homo sapiens) (UniProt Q9UHD2); details: Compound concentration 1000.0 nM
Sequence of Serine/threonine-protein kinase TBK1 (Homo sapiens) (Q9UHD2 whole entry): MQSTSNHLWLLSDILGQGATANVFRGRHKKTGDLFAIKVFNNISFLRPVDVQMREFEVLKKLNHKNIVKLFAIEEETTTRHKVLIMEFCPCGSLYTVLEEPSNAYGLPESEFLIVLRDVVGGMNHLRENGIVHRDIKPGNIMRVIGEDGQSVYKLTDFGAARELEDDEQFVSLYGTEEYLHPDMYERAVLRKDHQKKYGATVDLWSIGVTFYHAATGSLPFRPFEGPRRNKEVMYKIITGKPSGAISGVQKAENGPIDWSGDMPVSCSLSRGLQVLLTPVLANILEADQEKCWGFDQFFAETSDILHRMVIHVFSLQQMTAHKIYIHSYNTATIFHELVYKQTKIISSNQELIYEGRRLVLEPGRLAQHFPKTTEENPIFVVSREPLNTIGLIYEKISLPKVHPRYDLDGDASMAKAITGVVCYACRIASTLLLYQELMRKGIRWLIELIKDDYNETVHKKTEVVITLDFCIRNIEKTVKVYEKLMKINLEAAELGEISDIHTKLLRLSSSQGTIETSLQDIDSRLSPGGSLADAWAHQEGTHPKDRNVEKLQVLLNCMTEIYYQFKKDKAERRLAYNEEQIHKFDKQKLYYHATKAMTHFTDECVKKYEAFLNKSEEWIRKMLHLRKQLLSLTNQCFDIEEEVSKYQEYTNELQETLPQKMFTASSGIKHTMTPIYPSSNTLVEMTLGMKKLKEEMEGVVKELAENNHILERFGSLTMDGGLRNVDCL

[34] = biological target: Testis-specific serine/threonine-protein kinase 1 (Homo sapiens) (UniProt Q9BXA7); details: Compound concentration 1000.0 nM
[35] = biological target: Serine/threonine-protein kinase VRK2 (Homo sapiens) (UniProt Q86Y07); details: Compound concentration 1000.0 nM

| Structure (SMILES) | inhibition at 60 min, 10 µM [1] [%] | % Inhibition of Control Specific Binding (Mean n=2) [2] [%] | % Inhibition of Control Specific Binding (Mean n=2) [3] [%] | % Inhibition of Control Specific Binding (Mean n=2) [4] [%] | residual activity [5] [%] | residual activity [6] [%] | residual activity [7] [%] | residual activity [8] [%] | residual activity [9] [%] | residual activity [10] [%] | residual activity [11] [%] | residual activity [12] [%] | residual activity [13] [%] | residual activity [14] [%] | residual activity [15] [%] | residual activity [16] [%] | residual activity [17] [%] | residual activity [18] [%] | residual activity [19] [%] | residual activity [20] [%] | further results |
| --- | --- | --- | --- | --- | --- | --- | --- | --- | --- | --- | --- | --- | --- | --- | --- | --- | --- | --- | --- | --- | --- |
| CCCOc1ccc([C@H]2[C@H](C(=O)O)[C@@H](c3ccc4c(c3)OCO4)CN2CC(=O)Nc2c(CC)cccc2CC)cc1 [A-192621] | 7.9 | 10 | 36.7 | 16.2 | 86 | 58 | 91 | 80 | 90 | 81 | 100 | 84 | 100 | 65 | 92 | 97 | 77 | 100 | 97 | 90 | residual activity [21]: 86%; residual activity [22]: 80%; residual activity [23]: 92%; residual activity [24]: 68%; residual activity [25]: 88%; residual activity [26]: 82%; residual activity [27]: 100%; residual activity [28]: 74%; residual activity [29]: 98%; residual activity [30]: 94%; residual activity [31]: 54%; residual activity [32]: 95%; residual activity [33]: 91%; residual activity [34]: 92%; residual activity [35]: 61% |
| CCCOc1ccc([C@@H]2[C@@H](C(=O)O)[C@H](c3ccc4c(c3)OCO4)CN2CC(=O)Nc2c(CC)cccc2CC)cc1 [A-1806262] | 9.9 | 0.9 | 32.2 | 1.6 | 99 | 83 | 97 | 91 | 83 | 86 | 99 | 86 | 100 | 77 | 59 | 93 | 86 | 100 | 98 | 97 | residual activity [21]: 87%; residual activity [22]: 76%; residual activity [23]: 94%; residual activity [24]: 73%; residual activity [25]: 95%; residual activity [26]: 90%; residual activity [27]: 100%; residual activity [28]: 97%; residual activity [29]: 99%; residual activity [30]: 85%; residual activity [31]: 69%; residual activity [32]: 94%; residual activity [33]: 100%; residual activity [34]: 100%; residual activity [35]: 59% |
